Columns and labels:
[1] = system: S6K1 (Thr389) phosphorylation (mTORC1 activity) in wild-type (WT) 293T cells; test: Inhibition of S6K1 (Thr389) phosphorylation in wild-type 293T cells (ELISA); format: cell-based, human; settings: for IC50: Homo sapiens, HEK-293T, 2 h, wild-type 293T cells, 2 hours treatment; for fold lower potency compared with RAD001 (by IC50) / extent of inhibition of S6K1 (Thr389) phosphorylation: wild-type cells; for extent of inhibition of S6K1 (Thr389) phosphorylation: with increasing concentrations
Procedure, shortened: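 WT 293T cells in DMEM + 10% FBS, grown 24 h to ~80% confluence, then treated 2 h at 37 °C in duplicate with compounds over an 8–11-point range from 0.001 pM to 10 μM. DMSO vehicle served as negative control. Phospho-S6K1 (Thr389) measured by ELISA.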

[2] = In vitro microsomal metabolic stability, CD-1 mouse liver microsomes; format: in vitro ADME; settings: for microsomal CLint at 1 µM / CLint scaled at 1 µM: CD-1, mouse, mouse liver microsomes, pH 7.2; for half-life at 1 µM: CD-1, pH 7.2, 0.5 mg/ml protein, NADPH; for half-life at 1 µM / Remaining (T = 60 min) / Remaining (T = NCF60 min): Mouse liver microsomes; for Remaining (T = 60 min): with NADPH; for Remaining (T = NCF60 min): without NADPH regenerating system; for Remaining (T = 60 min) / Remaining (T = NCF60 min): 60 min
Procedure, shortened: (§1)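 Compounds at 1 μM incubated at 37° C with pooled CD-1 mouse or human liver microsomes (0.5 mg/mL protein) plus NADPH regenerating system in 50 mM potassium phosphate, pH 7.2, 3.3 mM MgCl2; sampled at 0–60 min, 60-min no-NADPH control. Parent loss by LC/MS/MS analyte/IS peak-area ratio, n=1.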

[3] = system: S6K1 (Thr389) phosphorylation (mTORC1 activity) in FKBP12 knock-out 293T cells; test: Inhibition of S6K1 (Thr389) phosphorylation in FKBP12 knock-out 293T cells (ELISA); format: cell-based, human; settings: for selectivity for FKBP12 compared with RAD001 (in words): wild-type versus FKBP12 knock-out cells
Procedure, shortened: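 CRISPR-generated FKBP12 knock-out HEK293T cells, alongside wild-type, were treated in duplicate for 2 hours at 37 °C with an 8–11-point dose range (0.001 pM–10 μM). Phospho-S6K1 Thr389 quantified by ELISA as an mTORC1 activity read-out, with DMSO as negative control.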

[4] = In vitro microsomal metabolic stability, human liver microsomes; format: in vitro ADME; settings: for Remaining (T = 60 min) / Remaining (T = NCF60 min) / half-life at 1 µM: Human liver microsomes; for Remaining (T = 60 min): with NADPH; for Remaining (T = NCF60 min): without NADPH regenerating system; for Remaining (T = 60 min) / Remaining (T = NCF60 min): 60 min; for CLint scaled at 1 µM / microsomal CLint at 1 µM: human, human liver microsomes; for CLint scaled at 1 µM / microsomal CLint at 1 µM / half-life at 1 µM: pH 7.2; for half-life at 1 µM: 0.5 mg/ml protein, NADPH
Procedure, shortened: as §1

Structure (SMILES) | IC50 [1] [nM] | fold lower potency compared with RAD001 (by IC50) [1] [fold] | extent of inhibition of S6K1 (Thr389) phosphorylation [1] | microsomal CLint at 1 µM [2] [µL/min/mg] | half-life at 1 µM [2] [min] | Remaining (T = 60 min) [2] [%] | Remaining (T = NCF60 min) [2] [%] | inhibition at 10 µM ([3]; Homo sapiens, HEK-293T, FKBP12 knock-out cells, 10 μM (highest tested concentration)) [%] | selectivity for FKBP12 compared with RAD001 (in words) [3] | Remaining (T = 60 min) [4] [%] | Remaining (T = NCF60 min) [4] [%] | CLint scaled at 1 µM [4] [mL/min/kg] | microsomal CLint at 1 µM [4] [µL/min/mg] | half-life at 1 µM [4] [min] | CLint scaled at 1 µM [2] [mL/min/kg] | inhibition of S6K1 (Thr389) phosphorylation in the absence of FKBP12 (in words) ([3]; FKBP12 knock-out cells) | inhibition at 1 µM ([3]; Homo sapiens, HEK-293T, FKBP12 knock-out cells, 1 μM) [%]
CO[C@@H]1C[C@H](C[C@@H](C)[C@@H]2CC[C@H](C)/C=C(\C)[C@@H](O)[C@@H](OC)C(=O)[C@H](C)C[C@H](C)/C=C/C=C/C=C(\C)C(Nc3cccc(C)c3)C[C@@H]3CC[C@@H](C)[C@@](O)(O3)C(=O)C(=O)N3CCCCC3C(=O)O2)CC[C@H]1O (stereo partly drawn) [Compound 50, (3S,6S,7E,9R,10R,12R,14S,15E,17E,19E,23S,26R,27R,34aS)-9,27-dihydroxy-3-((R)-1-((1S,3R,4R)-4-hydroxy-3-methoxycyclohexyl)propan-2-yl)-10-methoxy-6,8,12,14,20,26-hexamethyl-21-(m-tolylamino)-5,6,9,10,12,13,14,21,22,23,24,25,26,27,32,33,34,34a-octadecahydro-3H-23,27-epoxypyrido[2,1-c][1]oxa[4]azacyclohentriacontine-1,11,28,29(4H,31H)-tetraone] | 5.72 | 15 | near complete inhibition | < 9.6 | > 145 | 89 | 112 | 12 | selective to FKBP12 | 18 | 99 | 54.7 | 60.8 | 22.8 | – | – | –
CO[C@@H]1C[C@H](C[C@@H](C)[C@@H]2CC[C@H](C)/C=C(\C)[C@@H](O)[C@@H](OC)C(=O)[C@H](C)C[C@H](C)/C=C/C=C/C=C(\C)C(NS(=O)(=O)c3cnoc3C)C[C@@H]3CC[C@@H](C)[C@@](O)(O3)C(=O)C(=O)N3CCCCC3C(=O)O2)CC[C@H]1O (stereo partly drawn) [Compound 51, N-((3S,6S,7E,9R,10R,12R,14S,15E,17E,19E,23S,26R,27R,34aS)-9,27-dihydroxy-3-((R)-1-((1S,3R,4R)-4-hydroxy-3-methoxycyclohexyl)propan-2-yl)-10-methoxy-6,8,12,14,20,26-hexamethyl-1,11,28,29-tetraoxo-1,4,5,6,9,10,11,12,13,14,21,22,23,24,25,26,27,28,29,31,32,33,34,34a-tetracosahydro-3H-23,27-epoxypyrido[2,1-c][1]oxa[4]azacyclohentriacontin-21-yl)-5-methylisoxazole-4-sulfonamide] | 4.53 | 12 | near complete inhibition | 64.3 | 21.5 | 15 | 85 | – | not completely selective to FKBP12 | 0.20 | 89 | 182 | 202 | 6.86 | 255 | no further inhibition at 10 μM | 18
CO[C@@H]1C[C@H](C[C@@H](C)[C@@H]2CC[C@H](C)/C=C(\C)[C@@H](O)[C@@H](OC)C(=O)[C@H](C)C[C@H](C)/C=C/C=C/C=C(\C)C(Nc3cccc(OC(F)(F)F)c3)C[C@@H]3CC[C@@H](C)[C@@](O)(O3)C(=O)C(=O)N3CCCCC3C(=O)O2)CC[C@H]1O (stereo partly drawn) [Compound 58, (3S,6S,7E,9R,10R,12R,14S,15E,17E,19E,23S,26R,27R,34aS)-9,27-dihydroxy-3-((R)-1-((1S,3R,4R)-4-hydroxy-3-methoxycyclohexyl)propan-2-yl)-10-methoxy-6,8,12,14,20,26-hexamethyl-21-((3-(trifluoromethoxy)phenyl)amino)-5,6,9,10,12,13,14,21,22,23,24,25,26,27,32,33,34,34a-octadecahydro-3H-23,27-epoxypyrido[2,1-c][1]oxa[4]azacyclohentriacontine-1,11,28,29(4H,31H)-tetraone] | 2.94 | 35 | near complete inhibition | 6.4 | 217 | 83 | 96 | – | relatively not FKBP12 selective | 55 | 93 | 18 | 20 | 69.5 | 25.3 | inhibited the mTORC1 signaling in a dose dependent manner | –
CCOc1cccc(NC2C[C@@H]3CC[C@@H](C)[C@@](O)(O3)C(=O)C(=O)N3CCCCC3C(=O)O[C@H]([C@H](C)C[C@@H]3CC[C@@H](O)[C@H](OC)C3)CC[C@H](C)/C=C(\C)[C@@H](O)[C@@H](OC)C(=O)[C@H](C)C[C@H](C)/C=C/C=C/C=C/2C)c1 (stereo partly drawn) [Compound 59, (3S,6S,7E,9R,10R,12R,14S,15E,17E,19E,23S,26R,27R,34aS)-21-((3-ethoxyphenyl)amino)-9,27-dihydroxy-3-((R)-1-((1S,3R,4R)-4-hydroxy-3-methoxycyclohexyl)propan-2-yl)-10-methoxy-6,8,12,14,20,26-hexamethyl-5,6,9,10,12,13,14,21,22,23,24,25,26,27,32,33,34,34a-octadecahydro-3H-23,27-epoxypyrido[2,1-c][1]oxa[4]azacyclohentriacontine-1,11,28,29(4H,31H)-tetraone] | 0.17 | 2 | near complete inhibition | 10.3 | 135 | 76 | 112 | – | relatively not FKBP12 selective | 47 | 102 | 22.2 | 24.7 | 56.2 | 40.8 | inhibited the mTORC1 signaling in a dose dependent manner | –

From patent publication US20240360153A1 (Regeneron Pharmaceuticals, Inc., priority 2023, published 2024)
